Assay results as given in patent US20210261512A1, “NOVEL COMPOUNDS” (INFLAZOME LIMITED, priority 2018, published 2021).

What was measured:
NLRP3 [1] = target: T1, NLRP3 (Homo sapiens, UniProt Q96P20); assay: THP-1 cells pyroptosis assay; assay type: cell-based; design: Seed THP-1 cells (25,000 cells/well) containing 1.0 μg/ml LPS; host or cells: THP-1; conditions: LPS 1.0 μg/ml, nigericin 5 μM, resazurin readout, 10 μM top dose (Example 2: top dose of 30 μM)
In short: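 THP-1 cells (25,000/well) primed with 1 μg/ml LPS in serum-free RPMI, treated with compound (8-point dilution, 10 μM top unless stated; 0.1% DMSO) 3 h at 37°C, then nigericin 5 μM 1 h. Viability read by resazurin (100 μM, 1-2 h) fluorescence; IC50 from 4-parameter fit.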

[2] = PK, intravenous administration; assay type: in vivo; conditions: rat, plasma, male Sprague Dawley rats, dose about 1 mg/kg; for Vd: read-out: Vdss
Procedure: Pharmacokinetic parameters were determined in male Sprague Dawley rats (Vital River Laboratory Animal Technology Co Ltd, Beijing, China, 6-9 weeks old). Animals were maintained under a 12 h light/dark cycle. Animals had free access to food and water, except that orally dosed animals were food deprived overnight prior to the study.
For intravenous administration, compounds were formulated as a solution (in DMSO:water [10:90] or in DMSO:PBS [10:90]) in 2 mL/kg dosing volume and administered via tail vein. For oral administration, compounds were formulated as a solution (in 0.5% methylcellulose in water) in […] dosing volume and administered orally.
Serial blood samples (about 200 μL) were taken from each animal at each of 8 time-points post dose ([…], 0.25, 0.5, 1, 2, 4, 8 and 24 h). Samples were held on ice for no longer than 30 minutes before centrifugation (5,696 rpm (3,000 g) for 15 minutes) for plasma generation. Plasma was frozen on dry ice prior to bioanalysis. PK parameters were generated from LC-MS/MS data using Phoenix WinNonlin 6.3 software.

NLRP3 [3] = target: T1, NLRP3; assay: Human whole blood IL1β release assay; assay type: cell-based; conditions: LPS 1 μg/ml, nigericin 10 μM, IL-1β AlphaLisa, 10 μM top dose (Example 2: top dose of 30 μM), read-out: HWB IC50
In short: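 Healthy-donor heparinised human whole blood with 1 μg/ml LPS, compound (8-point half-log dilution, 10 μM top dose unless stated; 0.1% DMSO vehicle) for 3 h at 37 °C, then nigericin 10 μM final for 1 h. Supernatant IL-1β by AlphaLISA; IC50 from 4-parameter variable-slope fit.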

T1 sequence (Q96P20 whole entry): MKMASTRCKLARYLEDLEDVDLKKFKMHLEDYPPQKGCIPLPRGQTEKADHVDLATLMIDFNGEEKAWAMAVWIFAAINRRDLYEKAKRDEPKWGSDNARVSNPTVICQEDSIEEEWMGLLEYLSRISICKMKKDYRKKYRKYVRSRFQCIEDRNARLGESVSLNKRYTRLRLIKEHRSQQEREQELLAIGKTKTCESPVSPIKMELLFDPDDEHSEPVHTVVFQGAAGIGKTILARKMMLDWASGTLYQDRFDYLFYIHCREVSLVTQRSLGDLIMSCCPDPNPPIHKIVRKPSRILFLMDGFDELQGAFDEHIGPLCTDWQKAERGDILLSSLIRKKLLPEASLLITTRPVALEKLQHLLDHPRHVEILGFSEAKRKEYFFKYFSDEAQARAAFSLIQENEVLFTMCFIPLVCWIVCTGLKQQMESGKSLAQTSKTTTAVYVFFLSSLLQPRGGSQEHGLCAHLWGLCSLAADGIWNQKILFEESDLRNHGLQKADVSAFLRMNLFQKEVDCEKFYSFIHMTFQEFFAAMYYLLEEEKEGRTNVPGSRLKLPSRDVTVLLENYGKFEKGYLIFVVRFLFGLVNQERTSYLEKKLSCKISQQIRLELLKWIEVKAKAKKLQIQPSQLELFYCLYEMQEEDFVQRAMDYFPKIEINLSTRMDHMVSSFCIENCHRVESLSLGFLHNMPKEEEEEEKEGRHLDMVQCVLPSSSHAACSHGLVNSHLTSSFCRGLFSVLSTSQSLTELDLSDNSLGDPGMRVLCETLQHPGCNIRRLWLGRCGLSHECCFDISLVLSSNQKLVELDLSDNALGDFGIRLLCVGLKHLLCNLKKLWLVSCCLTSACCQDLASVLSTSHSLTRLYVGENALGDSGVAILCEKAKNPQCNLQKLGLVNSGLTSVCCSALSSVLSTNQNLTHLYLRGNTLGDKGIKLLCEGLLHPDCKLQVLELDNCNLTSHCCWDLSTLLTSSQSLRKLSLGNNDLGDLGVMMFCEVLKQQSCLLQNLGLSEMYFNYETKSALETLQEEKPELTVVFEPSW

| SMILES | IC50 (NLRP3 [1]) [µM] | AUC [2] [ng·h/mL] | clearance [2] [mL/min/kg] | half-life [2] [min] | Vd [2] [L/kg] | IC50 (NLRP3 [3]) [µM] |
| --- | --- | --- | --- | --- | --- | --- |
| CC(C)N1CC(S(=O)(=O)c2nnc(Nc3c4c(cc5c3CCC5)CCC4)[nH]2)C1 [Example 22, N-(1,2,3,5,6,7-hexahydro-s-indacen-4-yl)-5-((1-isopropylazetidin-3-yl)sulfonyl)-4H-1,2,4-triazol-3-amine] | ≤ 5 | 364 | 45.8 | 24 | 1.09 | ≤ 10 |
| CCN(CC)CCCS(=O)(=O)c1nnc(Nc2c3c(cc4c2CCC4)CCC3)[nH]1 [Example 24, 5-((3-(diethylamino)propyl)sulfonyl)-N-(1,2,3,5,6,7-hexahydro-s-indacen-4-yl)-4H-1,2,4-triazol-3-amine] | ≤ 0.5 | 173 | 96.5 | 48 | 5.26 | ≤ 1 |
| COc1cc(-c2cc(F)cc(C(C)C)c2Nc2nnc(S(=O)(=O)c3ccccc3)[nH]2)ccn1 [Example 45, N-(4-fluoro-2-isopropyl-6-(2-methoxypyridin-4-yl)phenyl)-3-(phenylsulfonyl)-1H-1,2,4-triazol-5-amine] | ≤ 5 | 545 | 30.6 | 72 | 1.59 | ≤ 5 |
| Cc1cc2c(c(Nc3nnc(S(C)(=O)=O)[nH]3)c1-c1ccnc(OC3CCN(C)CC3)c1)CCC2 [Example 317, N-(6-methyl-5-(2-((1-methylpiperidin-4-yl)oxy)pyridin-4-yl)-2,3-dihydro-1H-inden-4-yl)-5-(methylsulfonyl)-4H-1,2,4-triazol-3-amine] | ≤ 1 |  |  |  |  | ≤ 5 |
| Cc1cc2c(c(Nc3nnc(S(=O)(=O)c4ccccc4)[nH]3)c1-c1ccnc(OC3CCN(C)CC3)c1)CCC2 [Example 318, N-(6-methyl-5-(2-((1-methylpiperidin-4-yl)oxy)pyridin-4-yl)-2,3-dihydro-1H-inden-4-yl)-5-(phenylsulfonyl)-4H-1,2,4-triazol-3-amine] | ≤ 0.5 |  |  |  |  | ≤ 5 |
| COc1cc(-c2c(C)cc3c(c2Nc2nnc(S(=O)(=O)c4ccccc4)[nH]2)CCC3)ccn1 [Example 319, N-(5-(2-methoxypyridin-4-yl)-6-methyl-2,3-dihydro-1H-inden-4-yl)-5-(phenylsulfonyl)-4H-1,2,4-triazol-3-amine] | ≤ 0.5 |  |  |  |  | ≤ 10 |
| CN(C)C(=O)Cn1ccc(S(=O)(=O)c2nnc(Nc3c4c(cc5c3CCC5)CCC4)[nH]2)n1 [Example 320, 2-(3-((5-((1,2,3,5,6,7-hexahydro-s-indacen-4-yl)amino)-4H-1,2,4-triazol-3-yl)sulfonyl)-1H-pyrazol-1-yl)-N,N-dimethylacetamide] | ≤ 0.5 |  |  |  |  | ≤ 5 |
| NS(=O)(=O)c1ccccc1S(=O)(=O)c1nnc(Nc2c3c(cc4c2CCC4)CCC3)[nH]1 [Example 325, 2-((5-((1,2,3,5,6,7-hexahydro-s-indacen-4-yl)amino)-4H-1,2,4-triazol-3-yl)sulfonyl)benzenesulfonamide] | ≤ 0.5 |  |  |  |  | ≤ 10 |
| COc1cc(-c2ccc3c(c2Nc2nnc(S(=O)(=O)c4cccc(CN(C)C)c4)[nH]2)CCC3)ccn1 [Example 329, 5-((3-((dimethylamino)methyl)-phenyl)sulfonyl)-N-(5-(2-methoxypyridin-4-yl)-2,3-dihydro-1H-inden-4-yl)-4H-1,2,4-triazol-3-amine] | ≤ 0.5 |  |  |  |  | ≤ 5 |
| CC(C)(O)[C@@H]1CCN(S(=O)(=O)c2nnc(Nc3c4c(cc5c3CCC5)CCC4)[nH]2)C1 [Example 330, (R)-2-(1-((5-((1,2,3,5,6,7-hexahydro-s-indacen-4-yl)amino)-4H-1,2,4-triazol-3-yl)sulfonyl)pyrrolidin-3-yl)propan-2-ol] | ≤ 1 |  |  |  |  | ≤ 10 |
| CN1CC2(CC1=O)CN(S(=O)(=O)c1nnc(Nc3c4c(cc5c3CCC5)CCC4)[nH]1)C2 [Example 331, 2-((5-((1,2,3,5,6,7-hexahydro-s-indacen-4-yl)amino)-4H-1,2,4-triazol-3-yl)sulfonyl)-6-methyl-2,6-diazaspiro[3.4]octan-7-one] | ≤ 5 |  |  |  |  | ≤ 5 |
| COc1cc(-c2ccc3c(c2Nc2nnc(S(=O)(=O)c4ccn(C)n4)[nH]2)CCC3)ccn1 [Example 339, N-(5-(2-methoxypyridin-4-yl)-2,3-dihydro-1H-inden-4-yl)-5-((1-methyl-1H-pyrazol-3-yl)sulfonyl)-4H-1,2,4-triazol-3-amine] | ≤ 1 |  |  |  |  | ≤ 5 |
| NC(=O)c1cccc(S(=O)(=O)c2nnc(Nc3c4c(cc5c3CCC5)CCC4)[nH]2)c1 [Example 341, 3-((5-((1,2,3,5,6,7-hexahydro-s-indacen-4-yl)amino)-4H-1,2,4-triazol-3-yl)sulfonyl)benzamide] | ≤ 0.5 |  |  |  |  | ≤ 10 |
| [2H]C([2H])([2H])Oc1cc(-c2ccc3c(c2Nc2nnc(S(=O)(=O)N4CC[C@H](C(C)(C)O)C4)[nH]2)CCO3)ccn1 [Example 343, (S)-2-(1-((5-((5-(2-(methoxy-d3)pyridin-4-yl)-2,3-dihydrobenzofuran-4-yl)amino)-4H-1,2,4-triazol-3-yl)sulfonyl)pyrrolidin-3-yl)propan-2-ol] | ≤ 0.5 |  |  |  |  | ≤ 1 |
| [2H]C([2H])([2H])Oc1cc(-c2ccc3c(c2Nc2nnc(S(=O)(=O)N4CC[C@H](C(C)(C)O)C4)[nH]2)CCC3)ccn1 [Example 344, (S)-2-(1-((5-((5-(2-(methoxy-d3)pyridin-4-yl)-2,3-dihydro-1H-inden-4-yl)amino)-4H-1,2,4-triazol-3-yl)sulfonyl)pyrrolidin-3-yl)propan-2-ol] | ≤ 0.5 |  |  |  |  | ≤ 5 |
| O=S(=O)(c1nnc(Nc2c3c(cc4c2CCC4)CCC3)[nH]1)N1CC[C@H](C2(O)CC2)C1 [Example 345, (S)-1-(1-((5-((1,2,3,5,6,7-hexahydro-s-indacen-4-yl)amino)-4H-1,2,4-triazol-3-yl)sulfonyl)pyrrolidin-3-yl)cyclopropanol] | ≤ 1 |  |  |  |  | ≤ 10 |
| O=S(=O)(c1nnc(Nc2c3c(cc4c2CCC4)CCC3)[nH]1)N1CC2(CCC(O)C2)C1 (stereo not shown) [Example 346, 2-((5-((1,2,3,5,6,7-hexahydro-s-indacen-4-yl)amino)-4H-1,2,4-triazol-3-yl)sulfonyl)-2-azaspiro[3.4]octan-6-ol] | ≤ 1 |  |  |  |  | ≤ 5 |
| COC(C)(C)[C@H]1CCN(S(=O)(=O)c2nnc(Nc3c4c(cc5c3CCC5)CCC4)[nH]2)C1 [Example 347, (S)-N-(1,2,3,5,6,7-hexahydro-s-indacen-4-yl)-5-((3-(2-methoxypropan-2-yl)pyrrolidin-1-yl)sulfonyl)-4H-1,2,4-triazol-3-amine] | ≤ 1 |  |  |  |  | ≤ 10 |
| CN(C)CCn1ccc(S(=O)(=O)c2nnc(Nc3c4c(cc5c3CCC5)CCC4)[nH]2)n1 [Example 349, 5-((1-(2-(dimethylamino)ethyl)-1H-pyrazol-3-yl)sulfonyl)-N-(1,2,3,5,6,7-hexahydro-s-indacen-4-yl)-4H-1,2,4-triazol-3-amine] | ≤ 0.5 |  |  |  |  | ≤ 5 |
| CC(O)Cn1ccc(S(=O)(=O)c2nnc(Nc3c4c(cc5c3CCC5)CCC4)[nH]2)n1 (stereo not shown) [Example 352, 1-(3-((5-((1,2,3,5,6,7-hexahydro-s-indacen-4-yl)amino)-4H-1,2,4-triazol-3-yl)sulfonyl)-1H-pyrazol-1-yl)propan-2-ol] | ≤ 0.5 |  |  |  |  | ≤ 10 |
| O=S(=O)(c1nnc(Nc2c3c(cc4c2CCC4)CCC3)[nH]1)N1CCC2(CCOC2)CC1 [Example 360, 5-((2-oxa-8-azaspiro[4.5]decan-8-yl)sulfonyl)-N-(1,2,3,5,6,7-hexahydro-s-indacen-4-yl)-4H-1,2,4-triazol-3-amine] | ≤ 0.5 |  |  |  |  | ≤ 5 |
| NS(=O)(=O)c1ccc(S(=O)(=O)c2nnc(Nc3c4c(cc5c3CCC5)CCC4)[nH]2)cc1 [Example 366, 4-((5-((1,2,3,5,6,7-hexahydro-s-indacen-4-yl)amino)-4H-1,2,4-triazol-3-yl)sulfonyl)benzenesulfonamide] | ≤ 0.5 |  |  |  |  | ≤ 10 |
| Cc1cc2c(c(Nc3nnc(S(=O)(=O)c4ccccc4)[nH]3)c1-c1ccnc(OC3CCOCC3)c1)CCC2 [Example 370, N-(6-methyl-5-(2-((tetrahydro-2H-pyran-4-yl)oxy)pyridin-4-yl)-2,3-dihydro-1H-inden-4-yl)-5-(phenylsulfonyl)-4H-1,2,4-triazol-3-amine] | ≤ 0.5 |  |  |  |  | ≤ 5 |
